# Test results published in patent US4599352A, “Antineoplastic platinum (IV) complexes and compositions” (priority 1984, dated 1986).
# Columns and labels:
# [1] = test system: IP-Implanted L1210 Leukemia; assay: Dose-response against IP-implanted L1210 leukemia, IP treatment Days 1, 5 and 9, 30-day test (Table 2); type: in vivo, CD2Fl male mice; conditions: for Optimal dose (dose producing best therapeutic response): day 1, 5 and 9 schedule
# Protocol: (§1) Biological properties of the compounds of the present invention were determined following the protocol described in Cancer Chemotherapy Reports, Vol. 3, No. 3, 1972 which report is incorporated herein by reference.
# (§2) This experiment (A8-00005 3LE31) was conducted at the Southern Research Institute, Birmingham, Ala. under the supervision of Dr. Daniel Griswold. The protocols were the same as those published previously (Geran et al., Cancer Chemotherapy Reports 3: No. 2, 1972 [Attachment 11]). 10^5 cells were implanted intraperitoneally in CD2Fl male mice on Day 0. Drug treatments were given intraperitoneally as single injections at the doses indicated on Days 1, 5 and 9 after tumor implantation. The diluent was saline except for NSC-271674 where 5% sodium bicarbonate was used. All drugs were prepared fresh on the day of injection, and all were administered in solution. Median survival times for both control and drug-treated mice were determined and expressed as a percentage (% T/C). Body weights were determined on Day 5 and expressed as a weight difference (body weight of the drug-treated animals minus that of the control animals in grams) (T-C). The diluent control animals lived a median of 8.4 days and gained 1.9 grams by Day 5 in this experiment. All animals, including Day 30 survivors, were used in the calculation of median survival times. The log10 change in tumor burden refers to the net log change in viable tumor cell population at the end of therapy (Rx) as compared to the start of therapy; e.g., a […] means that there was a […] and a 3 log change means there was a 1000-fold increase in tumor burden at the end of therapy. The tumor burden at the start of therapy was about 6.1×10^5 cells in this experiment.
# IP L1210 = assay: Activity against IP-implanted L1210 leukemia sensitive to cisplatin, 30 day test (Table 3); type: in vivo, Female CD2Fl mice
# Protocol: as §1
# Other known mechanisms of resistance for other classes of agents, such as gene amplification or target enzyme change or amplication, also need to be explored. The experiments summarized in Table 3 were conducted at the same time against both sublines using the same drug preparations. […] These experiments were repeated in a second laboratory as documented in Table 4. However, in these experiments the animals were held for 60 rather than 30 days to evaluate whether or not long-term survivors are produced after drug treatment in a more challenging setting.
# as §2
# These experiments (A8-00008 3LE31 and A8-00001 3DP31) were conducted concurrently at the Southern Research Institute, Birmingham, Ala. under the supervision of Dr. Daniel Griswold. See Table 4 for experimental details. The diluent control animals bearing L1210 leukemia lived a median of 8.6 days and gained 1.3 grams by Day 5. […] Female CD2Fl mice were used for these experiments.
# [2] = test system: SC Implanted L1210 Leukemia; assay: Activity against SC implanted L1210 leukemia following intravenous administration, once daily Days 1-5 (Table 5); type: in vivo, CD2Fl male mice; conditions: for Optimal Dose: IV once daily Days 1-5
# Protocol: as §1
# In another type of experiment the same platinum complexes were directly compared against the SC implanted L1210 following intravenous administration (Table 5).
# This experiment (A8-00004 3LE32) was conducted at the Southern Research Institute, Birmingham, Ala. under the supervision of Dr. Daniel Griswold. The protocols were the same as those published previously (Attachment 11). 10^6 cells were implanted subcutaneously in CD2Fl male mice on Day 0. Drug treatments were given intravenously once daily at the doses indicated on Days 1-5 after tumor implantation. The dosage range tested included the highest and lowest doses indicated in the Table as well as intermediate values which were determined by multiplying each dose in turn by 0.5 starting with the highest dose. The diluent was saline except for NSC-271674 for which 5% sodium bicarbonate was used. All drugs were prepared fresh on the day of injection, and all were administered in solution. Median survival times for both control and drug-treated mice were determined and expressed as a percentage (% T/C). Body weights were determined on Day 5 and expressed as a weight difference (body weight of the drug-treated animals minus that of the control animals in grams) (T-C).
# [3] = test system: IP-Implanted L1210/Cisplatin; assay: Comparison of isomers: long term survivors and weight differences in treating IP-implanted L1210/Cisplatin (Table 6); type: in vivo, mice
# Description: Comparative data for the others are as follows: 27 for trans d, 27 for trans d l and 13 for cis. […] The higher the ratio the more convenient it is to prepare a formulation for intravenous administration to patients which is shown in Table 7.
# [4] = test system: L1210 and L1210/Cisplatin leukemia; assay: Total number of long-term survivors in Tables 2-4; type: in vivo, CD2Fl mice; conditions: for Total number of long-term survivors: Tables 2-4 summed
# Description: If one summarizes the data in Tables 2-4 by totalling the number of long-term survivors, unexpected differences among the isomers become apparent. For example, the trans l compound produced 30 long-term survivors.
molecule,measurement,setting,value
"[Cl][Pt-2]1([Cl])([Cl])([Cl])[NH2+][C@@H]2CCCC[C@H]2[NH2+]1 [trans (l), (1R,2R)-Tetrachloro-trans-1,2-cyclohexanediammine platinum (IV)]",30-Day Survivors/Total,[1]; 1 mg/kg/dose IP,0/6
same,Approx. Log10 Change in Tumor Burden at End of Rx,[1]; 1 mg/kg/dose IP,~2.7 log10
same,Body Weight Difference,[1]; 1 mg/kg/dose IP,-0.4 Grams
same,Median % T/C,[1]; 1 mg/kg/dose IP,134%
same,30-Day Survivors/Total,[1]; 2 mg/kg/dose IP,0/6
same,Approx. Log10 Change in Tumor Burden at End of Rx,[1]; 2 mg/kg/dose IP,~1.7 log10
same,Body Weight Difference,[1]; 2 mg/kg/dose IP,-0.9 Grams
same,Median % T/C,[1]; 2 mg/kg/dose IP,170%
same,30-Day Survivors/Total,[1]; 4 mg/kg/dose IP,2/6
same,Approx. Log10 Change in Tumor Burden at End of Rx,[1]; 4 mg/kg/dose IP,~-2.8 log10
same,Body Weight Difference,[1]; 4 mg/kg/dose IP,-1.2 Grams
same,Median % T/C,[1]; 4 mg/kg/dose IP,238%
same,30-Day Survivors/Total,[1]; 8 mg/kg/dose IP,1/6
same,Approx. Log10 Change in Tumor Burden at End of Rx,[1]; 8 mg/kg/dose IP,~-5.7 log10
same,Body Weight Difference,[1]; 8 mg/kg/dose IP,-2.5 Grams
same,Median % T/C,[1]; 8 mg/kg/dose IP,319%
same,Body Weight Difference,"[1]; 8 mg/kg/dose IP, listed as trans l",less than -4 Grams
same,30-Day Survivors/Total,[1]; 16 mg/kg/dose IP,0/6
same,Approx. Log10 Change in Tumor Burden at End of Rx,[1]; 16 mg/kg/dose IP,~3.0 log10
same,Body Weight Difference,[1]; 16 mg/kg/dose IP,-3.5 Grams
same,Median % T/C,[1]; 16 mg/kg/dose IP,119%
same,Optimal dose (dose producing best therapeutic response),[1],8 mg/kg/injection
same,30 Day Survivors/Total,IP L1210; 1 mg/kg/dose,0/6
same,Approx. Log10 Change in Tumor Burden at End of RX,IP L1210; 1 mg/kg/dose,~2.5 log10
same,Median % T/C,IP L1210; 1 mg/kg/dose,143%
same,30 Day Survivors/Total,IP L1210; 2 mg/kg/dose,1/6
same,Approx. Log10 Change in Tumor Burden at End of RX,IP L1210; 2 mg/kg/dose,~-0.4 log10
same,Median % T/C,IP L1210; 2 mg/kg/dose,197%
same,30 Day Survivors/Total,IP L1210; 4 mg/kg/dose,2/6
same,Approx. Log10 Change in Tumor Burden at End of RX,IP L1210; 4 mg/kg/dose,~-5.9 log10
same,Median % T/C,IP L1210; 4 mg/kg/dose,313%
same,30 Day Survivors/Total,IP L1210; 8 mg/kg/dose,4/6
same,Approx. Log10 Change in Tumor Burden at End of RX,IP L1210; 8 mg/kg/dose,~-5.9 log10
same,Median % T/C,IP L1210; 8 mg/kg/dose,348%
same,30 Day Survivors/Total,IP L1210; 16 mg/kg/dose,0/6
same,Median % T/C,IP L1210; 16 mg/kg/dose,93%
same,Optimal Dose,[2],2.5 mg/kg/inj
same,Total Grams of Weight Difference,[3],-6.0 Grams
same,Total number of long-term survivors,[3],17
same,Total number of long-term survivors,[4],30
"Tetrachloro-cis-1,2-cyclohexanediamine platinum (IV)",30-Day Survivors/Total,[1]; 1 mg/kg/dose IP,0/6
same,Approx. Log10 Change in Tumor Burden at End of Rx,[1]; 1 mg/kg/dose IP,~2.8 log10
same,Body Weight Difference,[1]; 1 mg/kg/dose IP,-0.8 Grams
same,Median % T/C,[1]; 1 mg/kg/dose IP,128%
same,30-Day Survivors/Total,[1]; 2 mg/kg/dose IP,0/6
same,Approx. Log10 Change in Tumor Burden at End of Rx,[1]; 2 mg/kg/dose IP,~2.6 log10
same,Body Weight Difference,[1]; 2 mg/kg/dose IP,-1.3 Grams
same,Median % T/C,[1]; 2 mg/kg/dose IP,140%
same,30-Day Survivors/Total,[1]; 4 mg/kg/dose IP,0/6
same,Approx. Log10 Change in Tumor Burden at End of Rx,[1]; 4 mg/kg/dose IP,~2.4 log10
same,Body Weight Difference,[1]; 4 mg/kg/dose IP,-1.1 Grams
same,Median % T/C,[1]; 4 mg/kg/dose IP,152%
same,30-Day Survivors/Total,[1]; 8 mg/kg/dose IP,0/6
same,Approx. Log10 Change in Tumor Burden at End of Rx,[1]; 8 mg/kg/dose IP,~-0.7 log10
same,Body Weight Difference,[1]; 8 mg/kg/dose IP,-1.8 Grams
same,Median % T/C,[1]; 8 mg/kg/dose IP,205%
same,30-Day Survivors/Total,[1]; 16 mg/kg/dose IP,2/6
same,Approx. Log10 Change in Tumor Burden at End of Rx,[1]; 16 mg/kg/dose IP,~-5.7 log10
same,Body Weight Difference,[1]; 16 mg/kg/dose IP,-3.6 Grams
same,Median % T/C,[1]; 16 mg/kg/dose IP,333%
same,Body Weight Difference,"[1]; 16 mg/kg/dose IP, listed as cis",less than -4 Grams
same,Optimal dose (dose producing best therapeutic response),[1],16 mg/kg/injection
same,30 Day Survivors/Total,IP L1210; 1 mg/kg/dose,0/6
same,Approx. Log10 Change in Tumor Burden at End of RX,IP L1210; 1 mg/kg/dose,~2.8 log10
same,Median % T/C,IP L1210; 1 mg/kg/dose,125%
same,30 Day Survivors/Total,IP L1210; 2 mg/kg/dose,0/6
same,Approx. Log10 Change in Tumor Burden at End of RX,IP L1210; 2 mg/kg/dose,~2.6 log10
same,Median % T/C,IP L1210; 2 mg/kg/dose,139%
same,30 Day Survivors/Total,IP L1210; 4 mg/kg/dose,0/6
same,Approx. Log10 Change in Tumor Burden at End of RX,IP L1210; 4 mg/kg/dose,~2.4 log10
same,Median % T/C,IP L1210; 4 mg/kg/dose,148%
same,30 Day Survivors/Total,IP L1210; 8 mg/kg/dose,2/6
same,Approx. Log10 Change in Tumor Burden at End of RX,IP L1210; 8 mg/kg/dose,~-5.9 log10
same,Median % T/C,IP L1210; 8 mg/kg/dose,325%
same,30 Day Survivors/Total,IP L1210; 16 mg/kg/dose,1/6
same,Approx. Log10 Change in Tumor Burden at End of RX,IP L1210; 16 mg/kg/dose,~-5.7 log10
same,Median % T/C,IP L1210; 16 mg/kg/dose,267%
same,Body Weight Difference,[2]; 5 mg/kg/inj IV,-3.3 Grams
same,Median % T/C,[2]; 5 mg/kg/inj IV,133%
same,Median Survival Time,[2]; 5 mg/kg/inj IV,13.7 days
same,Optimal Dose,[2],5.0 mg/kg/inj
same,Ratio of 2/1 (weight difference / long-term survivors),[3],1.40
same,Total Grams of Weight Difference,[3],-5.6 Grams
same,Total number of long-term survivors,[3],4
same,Total number of long-term survivors,[4],13
same,Relative biological activity,"[4]; mouse, in vivo",relatively lower biological activity
